{
  "source": "paper PMC8301423",
  "about": "“The Effects of Temperature and Pressure on Protein-Ligand Binding in the Presence of Mars-Relevant Salts” (Biology, 2021)",
  "key": {"[1]": {"target": "T1, bovine serum albumin (BSA) (Bos taurus, UniProt P02769)", "T1 construct": "BSA, molecular weight of 66 kDa, 583 residues; purchased Sigma Aldrich Chemicals (Taufkirchen, Germany)", "T1 sequence (P02769 25-607)": "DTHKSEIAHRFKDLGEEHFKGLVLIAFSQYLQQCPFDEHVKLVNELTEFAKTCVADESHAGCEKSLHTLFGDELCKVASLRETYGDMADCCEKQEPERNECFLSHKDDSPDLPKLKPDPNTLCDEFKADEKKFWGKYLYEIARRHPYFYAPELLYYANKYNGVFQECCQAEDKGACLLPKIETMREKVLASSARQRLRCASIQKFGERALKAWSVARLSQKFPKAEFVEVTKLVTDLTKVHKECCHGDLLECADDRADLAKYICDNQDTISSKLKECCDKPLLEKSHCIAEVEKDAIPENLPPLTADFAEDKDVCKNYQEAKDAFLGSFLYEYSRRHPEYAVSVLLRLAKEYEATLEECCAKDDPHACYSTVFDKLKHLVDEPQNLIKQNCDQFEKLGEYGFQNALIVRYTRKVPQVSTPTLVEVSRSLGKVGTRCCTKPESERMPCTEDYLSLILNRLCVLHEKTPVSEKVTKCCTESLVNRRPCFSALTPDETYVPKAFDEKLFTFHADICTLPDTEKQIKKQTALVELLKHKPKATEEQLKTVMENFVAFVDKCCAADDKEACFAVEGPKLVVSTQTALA", "conditions": "neat buffer (10 mM Tris-HCl), no salt; cited from earlier work"}, "[2]": {"target": "T1, bovine serum albumin (BSA)", "test": "Job's plot (method of continuous variation) by steady-state fluorescence for binding stoichiometry", "conditions": "1 bar", "procedure": "First, we explored the impact of 250 mM MgCl2, Mg(ClO4)2, and MgSO4 on the ligand binding process at 25 °C and ambient pressure (1 bar). To be able to determine the binding constant, it is of fundamental importance to exactly know the stoichiometry of the complex formed. In this way, a proper binding model can be applied in the data analysis of the measured binding isotherms, providing the most appropriate value of the binding constant, Kb. We applied the method of continuous variation (or Job’s plot) for the estimation of the binding stoichiometry by means of steady-state fluorescence spectroscopy. A series of solutions were prepared such that the total concentration (i.e., [ANS] + [BSA]) is constant, while the mole fractions of the interacting partners were varied. Discontinuities in the plot of fluorescence intensity vs. xANS (where xANS is the mole fraction of ANS) are indicative of the stoichiometry of the complex formed."}, "[3]": {"conditions": "250 mM Mg(ClO4)2, 25 °C, [ANS]+[BSA] 35 µM"}},
  "data": [
    {"smiles": "O=S(=O)(O)c1cccc2cccc(Nc3ccccc3)c12", "note": "[ANS, 8-anilinonaphthalene-1-sulfonic acid]", "values": [
      {"measurement": "ANS molecules bound on average to one BSA molecule", "setting": "[1]", "value": "three"},
      {"measurement": "ANS molecules bound to one BSA molecule", "setting": "[2]; 250 mM Mg(ClO4)2, 25 °C", "value": "two"},
      {"measurement": "Job's plot first inflection point xANS", "setting": "[2]; [3]", "value": 0.5},
      {"measurement": "Job's plot second inflection point xANS", "setting": "[2]; [3]", "value": "≈ 0.65"},
      {"measurement": "Job's plot inflection point xANS (mole fraction of ANS)", "setting": "[2]; 250 mM MgCl2, 25 °C, [ANS]+[BSA] 35 µM", "value": "≈ 0.75"},
      {"measurement": "ANS molecules bound to one BSA molecule", "setting": "[2]; 250 mM MgSO4, 25 °C", "value": "three"},
      {"measurement": "Job's plot inflection point xANS (mole fraction of ANS)", "setting": "[2]; 250 mM MgSO4, 25 °C, [ANS]+[BSA] 35 µM", "value": "≈ 0.75"}
    ]}
  ]
}
